PMC7730441, “Acetylcholinesterase and butyrylcholinesterase inhibitory activities of khellactone coumarin derivatives isolated from Peucedanum japonicum Thurnberg” (Scientific Reports, 2020)
Where “and” joins values, the source holds several entries; their conditions need not be identical. Equal values may be shown once.

Legend:
[1] = design: method as in PMID 31704444; conditions: up to 10 µg/µL (i.e., ~ 25 mM); cited from earlier work
recombinant human MAO-A = target: T1, recombinant human MAO-A (Homo sapiens, UniProt P21397); assay: MAO-A inhibition assay (kynuramine); type: biochemical; conditions: inhibitor 10 µM; read-out: Residual activity at 10 µM (%) MAO-A
T1 construct: purchased Sigma-Aldrich
T1 sequence (P21397 1-527): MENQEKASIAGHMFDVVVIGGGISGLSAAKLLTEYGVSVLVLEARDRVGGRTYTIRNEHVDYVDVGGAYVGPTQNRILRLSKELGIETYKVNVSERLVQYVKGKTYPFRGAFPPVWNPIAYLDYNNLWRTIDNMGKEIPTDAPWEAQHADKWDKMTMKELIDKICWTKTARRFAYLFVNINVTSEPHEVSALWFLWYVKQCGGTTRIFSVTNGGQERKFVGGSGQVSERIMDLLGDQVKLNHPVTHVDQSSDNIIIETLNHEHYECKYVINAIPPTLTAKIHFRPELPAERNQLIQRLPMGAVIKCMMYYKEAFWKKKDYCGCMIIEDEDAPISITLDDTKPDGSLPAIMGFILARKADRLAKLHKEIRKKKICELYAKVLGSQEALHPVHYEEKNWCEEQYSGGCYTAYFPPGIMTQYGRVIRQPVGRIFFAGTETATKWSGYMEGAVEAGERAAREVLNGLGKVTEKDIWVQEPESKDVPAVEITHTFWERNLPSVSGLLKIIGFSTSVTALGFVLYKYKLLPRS
Protocol: (§1) AChE assays were performed as described by Ellman et al.[41] with slight modifications. […] DTNB was used for color development, caused by reaction between it and thiocholine (a product of AChE). For inhibitory assays, compounds were preincubated with AChE for 15 min prior to ATCI and DTNB addition. BChE activity was assayed using the same method, but BTCI was used instead of ATCI.
(§2) Inhibitions of the activities of AChE, BChE, MAO-A, and MAO-B by the 15 compounds were investigated at an inhibitor concentration of 10 µM. IC50 values were also determined. […] The inhibition types and Ki values were determined using Lineweaver–Burk Plots and secondary plots.

recombinant human MAO-B = target: T2, recombinant human MAO-B (Homo sapiens, UniProt P27338); assay: MAO-B inhibition assay (benzylamine); type: biochemical; conditions: inhibitor 10 µM; read-out: Residual activity at 10 µM (%) MAO-B
T2 construct: purchased Sigma-Aldrich
T2 sequence (P27338 1-520): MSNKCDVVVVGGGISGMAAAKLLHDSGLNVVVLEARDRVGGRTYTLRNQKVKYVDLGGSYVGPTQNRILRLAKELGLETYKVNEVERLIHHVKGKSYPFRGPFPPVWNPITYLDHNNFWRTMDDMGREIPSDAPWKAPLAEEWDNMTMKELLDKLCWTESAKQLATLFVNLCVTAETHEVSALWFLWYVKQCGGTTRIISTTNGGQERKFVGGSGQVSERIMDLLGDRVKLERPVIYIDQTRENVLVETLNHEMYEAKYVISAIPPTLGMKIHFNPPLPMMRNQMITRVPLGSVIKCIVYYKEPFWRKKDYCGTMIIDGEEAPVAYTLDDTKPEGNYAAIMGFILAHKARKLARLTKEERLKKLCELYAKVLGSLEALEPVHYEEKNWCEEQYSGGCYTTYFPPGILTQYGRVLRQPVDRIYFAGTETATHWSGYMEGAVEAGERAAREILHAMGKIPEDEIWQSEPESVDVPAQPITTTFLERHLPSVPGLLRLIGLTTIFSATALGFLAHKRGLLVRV
Protocol: as §1, §2

[2] = target: T3, AChE (Type VI-S; from Electrophorus electricus) (Electrophorus electricus, UniProt O42275); assay: biochemical; conditions: for IC50 / remaining activity at 10 µM / Residual activity at 10 µM (%) AChE: 15 min preincubation; for IC50: read-out: IC50 (µM) AChE; for remaining activity at 10 µM: read-out: Residual activity at 10 µM (%) AChE, inhibitor 10 µM; for SI = IC50 of AChE/ IC50 of BChE: selectivity index; for Ki: Lineweaver–Burk and secondary plots, read-out: Ki value for AChE inhibition; for Inhibition type, AChE: Lineweaver–Burk plots; for Residual activity at 10 µM (%) AChE: inhibitor 10 µM
T3 construct: AChE (Type VI-S; from Electrophorus electricus); purchased Sigma-Aldrich Type VI-S (catalogue number not given)
Protocol: as §1, §2

BChE (from equine serum) = target: T4, BChE (from equine serum) (Equus caballus, UniProt P81908); assay: biochemical; conditions: for IC50: 15 min preincubation, read-out: IC50 (µM) BChE
T4 construct: BChE (from equine serum); purchased Sigma-Aldrich; host or cells: equine serum
Protocol: as §1, §2

BChE = target: T5, BChE (Equus caballus, UniProt P81908); assay: Reversibility of BChE inhibition by dialysis; type: biochemical, equine
T5 construct: BChE (from equine serum); purchased Sigma-Aldrich; host or cells: equine serum
Protocol: (§3) Inhibitor reversibilities were examined using the dialysis method, using with AChE or BChE, rather than MAO enzymes. […] Dialysis was conducted for 6 h with stirring and two buffer changes. Residual activities before (AU) and after (AD) dialysis were compared to those of non-treated controls, and reversibility types were determined by comparing AD and AU values.
(§4) For recovery experiments, preincubated enzyme mixtures were dialyzed as described in the text.

[3] = test system: LPS-stimulated RAW264.7 cells; design: method as in PMID 31704444; conditions: at 10 µg/µL; cited from earlier work
AChE = target: T6, AChE (Electrophorus electricus, UniProt O42275); assay: Reversibility of AChE inhibition by dialysis; type: biochemical; conditions: for Reversibility of AChE inhibition: dialysis method; for Residual AChE activity before dialysis (AU) / Residual AChE activity after dialysis (AD): inhibitor ~ 2 × IC50: PJ13, 20 µM, PJ15, 20 µM, tacrine, 0.54 µM; for Residual AChE activity before dialysis (AU): 30 min preincubation; for Residual AChE activity after dialysis (AD): dialysis 6 h
T6 construct: AChE (Type VI-S; from Electrophorus electricus); purchased Sigma-Aldrich Type VI-S (catalogue number not given)
Protocol: as §3, §4

T6 sequence (O42275 24-633): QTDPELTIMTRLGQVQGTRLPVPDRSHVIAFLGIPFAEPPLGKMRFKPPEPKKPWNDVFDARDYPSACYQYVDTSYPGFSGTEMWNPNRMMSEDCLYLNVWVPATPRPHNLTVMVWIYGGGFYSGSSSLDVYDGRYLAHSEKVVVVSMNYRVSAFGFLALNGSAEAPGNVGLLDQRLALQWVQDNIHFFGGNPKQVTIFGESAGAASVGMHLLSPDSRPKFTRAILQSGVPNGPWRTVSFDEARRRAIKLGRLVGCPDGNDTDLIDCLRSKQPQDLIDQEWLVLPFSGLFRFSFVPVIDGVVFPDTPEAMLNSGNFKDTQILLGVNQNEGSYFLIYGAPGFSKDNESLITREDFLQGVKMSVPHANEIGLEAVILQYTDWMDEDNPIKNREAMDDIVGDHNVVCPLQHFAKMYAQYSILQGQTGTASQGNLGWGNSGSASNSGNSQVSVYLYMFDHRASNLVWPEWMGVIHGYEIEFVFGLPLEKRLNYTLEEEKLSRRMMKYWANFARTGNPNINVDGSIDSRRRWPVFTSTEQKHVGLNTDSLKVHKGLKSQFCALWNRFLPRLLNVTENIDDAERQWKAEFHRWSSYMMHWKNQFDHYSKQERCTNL
T3 sequence (O42275 24-633): as above
T5 sequence (P81908 whole entry): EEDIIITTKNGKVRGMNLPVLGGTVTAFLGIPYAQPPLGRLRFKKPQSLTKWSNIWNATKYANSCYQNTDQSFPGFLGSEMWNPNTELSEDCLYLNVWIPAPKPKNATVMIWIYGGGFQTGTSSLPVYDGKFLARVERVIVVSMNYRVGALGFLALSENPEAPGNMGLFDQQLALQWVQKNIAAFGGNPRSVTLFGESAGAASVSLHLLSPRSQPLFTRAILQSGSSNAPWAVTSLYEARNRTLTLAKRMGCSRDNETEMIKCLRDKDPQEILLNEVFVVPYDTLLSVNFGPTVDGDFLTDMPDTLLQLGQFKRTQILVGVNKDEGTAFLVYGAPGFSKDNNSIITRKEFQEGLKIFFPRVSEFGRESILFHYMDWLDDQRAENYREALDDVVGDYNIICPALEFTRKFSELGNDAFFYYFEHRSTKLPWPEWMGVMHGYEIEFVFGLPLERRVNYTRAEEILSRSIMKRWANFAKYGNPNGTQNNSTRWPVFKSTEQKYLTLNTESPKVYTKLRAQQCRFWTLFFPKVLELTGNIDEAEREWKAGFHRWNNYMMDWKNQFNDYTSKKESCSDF
T4 sequence (P81908 whole entry): as above

C/C=C(/C)C(=O)O[C@@H]1c2c(ccc3ccc(=O)oc23)OC(C)(C)[C@@H]1OC(=O)C=C(C)C [PJ5, senecioyl-4′-angeloyl-khellactone]
Toxicity [1]: non-toxic
remaining activity at 10 µM (recombinant human MAO-A): 84.7 ± 9.3%
remaining activity at 10 µM (recombinant human MAO-B): 96 ± 0.52%
IC50 [2]: > 40 µM
remaining activity at 10 µM [2]: 96 ± 2.83%
SI = IC50 of AChE/ IC50 of BChE [2]: > 5.54
IC50 (BChE (from equine serum)): 7.22 µM and 7.2 µM
Ki (BChE (from equine serum); Lineweaver–Burk and secondary plots, read-out: Ki value for BChE inhibition): 4.16 µM
Inhibition type, BChE (BChE (from equine serum); Lineweaver–Burk plots): mixed-type
Reversibility of BChE inhibition (BChE; dialysis method): reversible
Residual BChE activity before dialysis (AU) (BChE; inhibitor ~ 2 × IC50: PJ5, 14 µM, tacrine, 0.54 µM, 30 min preincubation): 41.2%
Residual BChE activity after dialysis (AD) (BChE; inhibitor ~ 2 × IC50: PJ5, 14 µM, tacrine, 0.54 µM, dialysis 6 h): 86.8%
Anti-inflammatory effects [3]: potent

C/C=C(/C)C(=O)O[C@@H]1[C@H](OC(=O)C(C)CC)c2c(ccc3ccc(=O)oc23)OC1(C)C (some centres unmarked) [PJ13, 3′-angeloyl-4′-(2-methylbutyryl)khellactone]
Toxicity [1]: non-toxic
remaining activity at 10 µM (recombinant human MAO-A): 88.5 ± 5.41%
remaining activity at 10 µM (recombinant human MAO-B): 64.6 ± 8.82%
IC50 [2]: 9.28 ± 0.094 µM
Ki [2]: 5.98 µM
Inhibition type, AChE [2]: mixed-type
Residual activity at 10 µM (%) AChE [2]: 48.0 ± 9.40%
remaining activity at 10 µM [2]: < 50%
SI = IC50 of AChE/ IC50 of BChE [2]: < 0.23
IC50 (BChE (from equine serum)): > 40 µM
Reversibility of AChE inhibition (AChE): reversible
Residual AChE activity before dialysis (AU) (AChE): 34.7%
Residual AChE activity after dialysis (AD) (AChE): 72.3%
Anti-inflammatory effects [3]: potent

CCC(C)C(=O)O[C@@H]1c2c(ccc3ccc(=O)oc23)OC(C)(C)[C@@H]1OC(=O)CC(C)C (some centres unmarked) [PJ15, 3′-isovaleryl-4′-(2-methylbutyroyl)khellactone]
Toxicity [1]: non-toxic
remaining activity at 10 µM (recombinant human MAO-A): 76.9 ± 4.2%
remaining activity at 10 µM (recombinant human MAO-B): 73.3 ± 7.21%
IC50 [2]: 10 ± 0.48 µM
Ki [2]: 10.4 µM
Inhibition type, AChE [2]: mixed-type
Residual activity at 10 µM (%) AChE [2]: 50.0 ± 2.82%
remaining activity at 10 µM [2]: < 50%
SI = IC50 of AChE/ IC50 of BChE [2]: < 0.25
IC50 (BChE (from equine serum)): > 40 µM
Reversibility of AChE inhibition (AChE): reversible
Residual AChE activity before dialysis (AU) (AChE): 32.8%
Residual AChE activity after dialysis (AD) (AChE): 68.7%
Anti-inflammatory effects [3]: potent
